Results: patent EP1206494B1, “COMPUTATIONAL DESIGN METHODS FOR MAKING MOLECULAR MIMETICS” (SYNT:EM S.A., priority 1999, dated 2001)
Where a SMILES comes first, the peptide text is derived from it. Bridges are numbered along the chain shown (N, C = ends). Mpa = O=C(O)CCS

Legend:
HIV-1-LAI strain [1] = assay: Antiviral activity assay on PBMCs infected by HIV isolates (reverse transcriptase in day 7 supernatant); assay type: cell-based; conditions: Human immunodeficiency virus 1, PBMC
Method: Mononucleated cells were isolated from peripheral blood of a healthy donor (and seronegative for HIV and hepatitis viruses) with a gradient of Ficoll-Hypaque. The PBMCs were activated by […] of phytohemaglutinine-P (PHA-P, Difco Laboratories, Detroit, USA) during three days, then cultured at 200,000 cells per well in a 96-well plate, in a culture medium A, complemented by 20 IU/ml of recombinant interleukin-2 (rHuIL-2, Roche Products, Mannheim, Germany). Medium A consists of: RPMI cell culture (RPMI 1640, Roche Products), 10% Fetal Calf Serum (FCS, Roche Products complement inactivated by heating at 56°C for 45mn, 2mM L-glutamine (Roche Products) and a solution of three antibiotics (penicillin, streptomycin and neomycin (PSN, LifeTechnologies, Grand Island, JSA). During culture, cells were maintained at +37°C, in a saturated humid atmosphere, under 5% CO2.
(§1) PBMCs were infected over 1 hour at 37°C with a 10 000 tissue culture infectious dose 50% (TCID50) of the lymphocytary tropism reference strain HIV-1-LAI. At the end of the incubation, cells were washed twice with medium A. The HIV-1 strain was exclusively amplified, in the Neurovirology Service, with Umbilical Blood Mononucleated Cells (UBMC) activated with PHA-P, and the TCID50 was calculated using the Kärber formula.
The mimetic and the scrambled peptide were dissolved in ultrapure sterile water. Five concentrations were tested (50 µM, 10 µM, 5 µM, 1 µM and 0.5 µM). Antibodies ST40 and 9E8 (provided by the CNRS UMR 9921, Montpellier) were tested at the following concentrations: 100 µg/ml, 10 µg/ml, 1 µg/ml, 100 ng/ml and 10 ng/ml.
(§2) The activities of these compounds were compared to the Q4120 reference antibody and to AZT. […] The anti-HIV activity of AZT was measured at the following concentrations: 10 µM, 1 µM, 100 nM, 10 nM and 1 nM. […]
(§3) All experiments were performed in triplicate. […] The viral replication was measured by dosing the inverse transcriptase activation in the supernatant of the 7th day culture, using a dosing kit Retrosys(r), supplied by Innovagen (Lund, Sweden).

human recombinant CD4 = molecular target: T1, human recombinant CD4 (Homo sapiens, UniProt P01730); assay: BIAcore surface plasmon resonance kinetic analysis: binding of soluble CD4 to immobilized mimetic
T1 construct: purchased RepliGen (USA)
Method: The human recombinant CD4 used for the kinetic analysis and the biological assays was obtained from RepliGen (USA).
The kinetic parameters, association rate constant (ka) and dissociation rate constant (kd), were determined by surface plasmon resonance (SPR) analysis using BIACORE 2000 (Biacore AB, Uppsala, Sweden). ka and kd were determined using BIAevaluation 3.0 software (BIAcore AB). The apparent equilibrium constant KD is the ratio kd/ka. All experiments were carried out at 25°C.
The free SH group of the lysine side chain extended by a 3-mercaptopropionic acid linker of the mimetic was used to chemically immobilize molecules on a B1 sensor chip (BIAcore AB) following a standard PDEA/EDC/NHS procedure from BIAcore.
The binding kinetic of CD4 to immobilized mimetic was determined by injecting CD4 (1-20 µg/ml, 16-330 nM) in HBS buffer (running buffer) at a flow rate of 30 µl/min.

HIV-1-LAI strain [2] = assay type: cell-based; conditions: dose independent, non-linear behavior
Method: Mononucleated cells were isolated from peripheral blood of a healthy donor (and seronegative for HIV and hepatitis viruses) with a gradient of Ficoll-Hypaque. The PBMCs were activated by […] of phytohemaglutinine-P (PHA-P, Difco Laboratories, Detroit, USA) during three days, then cultured at 200,000 cells per well in a 96-well plate, in a culture medium A, complemented by 20 IU/ml of recombinant interleukin-2 (rHuIL-2, Roche Products, Mannheim, Germany). […]
as §1, with “formula. […]” for “formula.”
as §2, §3

SMILES: Cc1cn([C@H]2C[C@H](N=[N+]=[N-])[C@@H](CO)O2)c(=O)[nH]c1=O [AZT]
- inhibition at 0.001 µM (HIV-1-LAI strain [1]): 66 ± 5%
- inhibition at 0.01 µM (HIV-1-LAI strain [1]): 74 ± 13%
- inhibition at 0.1 µM (HIV-1-LAI strain [1]): 100%

SMILES: CC(=O)N[C@@H](C)C(=O)N[C@@H](CCCNC(=N)N)C(=O)N[C@@H](CCCNC(=N)N)C(=O)N1CCC[C@H]1C(=O)N[C@H]1CCCCNC(=O)[C@@H]2CCCN2C(=O)CNC(=O)[C@H](Cc2ccc(O)cc2)NC(=O)[C@H](C)NC(=O)[C@H](C(C)C)NC(=O)[C@H](Cc2c[nH]c3ccccc23)NC(=O)[C@@H]2CCCN2C(=O)CNC(=O)[C@H](Cc2c[nH]c3ccccc23)NC(=O)[C@H](C(C)C)NC(=O)[C@H](CC(N)=O)NC(=O)[C@@H]2CCCN2C(=O)[C@H](Cc2c[nH]cn2)NC(=O)[C@H](CC(N)=O)NC(=O)[C@H](CCCCNC(=O)CCS)NC(=O)[C@H](C(C)C)NC(=O)[C@H](Cc2ccc(O)cc2)NC(=O)[C@@H]2CCCN2C(=O)[C@H](C)NC(=O)[C@H](CCCNC(=N)N)NC(=O)[C@H](Cc2ccc(O)cc2)NC(=O)[C@H](Cc2ccccc2)NC1=O [Mk3Tyr-long1SH] (Ac-ARRPKFYRAPYVK(Mpa)NHPNVWGPWVAYGP; lactam 5-C)
- kon (human recombinant CD4; immobilized mimetic and soluble CD4, 25°C, read-out: ka): 82600 M⁻¹ s⁻¹
- Kd (human recombinant CD4; ratio kd/ka, read-out: calculated KD): 3.2 nM

SMILES: CC[C@H](C)[C@H](NC(C)=O)C(=O)N[C@@H](Cc1c[nH]c2ccccc12)C(=O)N[C@H](C(=O)N[C@H]1CCCCNC(=O)CNC(=O)[C@H](Cc2c[nH]c3ccccc23)NC(=O)[C@H](C(C)C)NC(=O)[C@@H]2CCCN2C(=O)[C@H](CCCNC(=N)N)NC(=O)[C@H](C)NC(=O)[C@H](CC(N)=O)NC(=O)[C@@H]2CCCN2C(=O)[C@H](C)NC(=O)[C@H](CCCNC(=N)N)NC(=O)[C@@H]2CCCN2C(=O)CNC(=O)[C@H](Cc2ccc(O)cc2)NC(=O)[C@H](Cc2ccccc2)NC(=O)[C@H](CS)NC(=O)[C@H](CCCNC(=N)N)NC(=O)[C@H](CC(N)=O)NC(=O)[C@H](Cc2ccc(O)cc2)NC(=O)[C@@H]2CCCN2C(=O)[C@H](C(C)C)NC(=O)[C@H](Cc2c[nH]cn2)NC(=O)[C@@H]2CCCN2C(=O)[C@H](C)NC1=O)C(C)C [scrambled peptide] (Ac-IWVKAPHVPYNRCFYGPRAPNARPVWG; lactam 4-C)
- anti-retroviral activity (in words) (HIV-1-LAI strain [2]): within the background noise
